{
  "source": "patent US8895313B2",
  "about": "“Ligands for aggregated tau molecules” (Wista Laboratories Ltd., priority 2008, dated 2014)",
  "key": {"[1]": {"target": "T1, aggregated tau in brain sections of line 66 mice (full-length human tau, P301S/G335D) (Homo sapiens, UniProt P10636, G652D/P618S)", "T1 construct": "transgenic mice expressing full-length human tau; from tissue; host or cells: fixed brain sections of transgenic line 66 mice (paraffin-embedded or frozen)", "T1 sequence (P10636 1-441 isoform P10636-8 P301S/G335D)": "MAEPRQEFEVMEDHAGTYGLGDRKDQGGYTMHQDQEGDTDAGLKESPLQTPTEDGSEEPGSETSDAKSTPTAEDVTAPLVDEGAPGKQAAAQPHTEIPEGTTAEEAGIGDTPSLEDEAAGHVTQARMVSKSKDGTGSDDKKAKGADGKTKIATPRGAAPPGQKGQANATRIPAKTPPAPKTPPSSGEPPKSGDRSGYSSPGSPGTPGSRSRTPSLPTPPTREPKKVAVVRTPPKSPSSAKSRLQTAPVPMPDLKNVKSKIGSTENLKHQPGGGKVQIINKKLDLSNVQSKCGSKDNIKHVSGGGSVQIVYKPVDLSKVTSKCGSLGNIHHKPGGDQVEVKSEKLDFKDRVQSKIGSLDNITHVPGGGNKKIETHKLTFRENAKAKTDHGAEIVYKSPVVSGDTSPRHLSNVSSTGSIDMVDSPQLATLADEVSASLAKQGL", "assay": "Ligand staining of paraffin-embedded brain sections", "parameters": "species or system mouse", "source_text": "The binding of ligands to aggregated tau in tissue sections or cells containing such aggregates can also be used to test whether such compounds can (i) enter cells, and (ii) bind to aggregated tau. In addition, it is a suitable means to test fluorescent ligands that cannot be tested in the fluorescent competition binding assay.\nBrain tissue sections were used from transgenic mice expressing full-length human tau, that contained a double mutation P301S/G335D (line 66 mouse). Aggregated tau pathology accumulates in neurons in these animals. Fixed tissue was used either after embedding in paraffin or after freezing in the presence of cryoprotectant.\nSections from the brains of mice expressing full-length tau, that contain a double mutation P301S/G335D, associated with frontotemporal […] were cut 5 μm thick. Sections were dewaxed and rehydrated into water. Inherent fluorescence was quenched with sodium permanganate followed by sodium borohydride. Primulin or SK2033-30 was added in 50% ethanol. In a second experiment, SK2033-30 was added in 50% ethanol containing 10% DMSO. Sections were compared with those stained by standard immunohistochemistry using mAb 7/51, an antibody recognising truncated tau repeat domain (Novak et al. (1993); Wischik et al. (1996))."}, "[2]": {"target": "T2, aggregated tau in 3T6 cells expressing htau40 (IPTG-inducible) and truncated tau (Homo sapiens, UniProt P10636)", "T2 construct": "express both full-length human tau protein (htau40); truncated tau (295-390, dGA); expressed in transfected cells; host or cells: murine 3T6 fibroblasts; htau40 in pOPRSVI (IPTG-inducible), dGA in pcDNA3.1 (constitutive)", "assay": "Tissue culture cell assay: uptake and labelling of aggregated tau", "assay_type": "cell-based, mouse", "description": "The aggregated tau was prepared in cell lines as described in WO02/055720. In essence, fibroblast cells (3T6) express full-length tau (“T40”) under control of an inducible promotor, and low constitutive levels of the PHF-core tau fragment (12 kD fragment). Then T40 expression is induced, it undergoes aggregation-dependent truncation within the cell, N-terminally at ˜αα295 and C-terminally at ˜αα390, thereby producing higher levels of the 12 kD PHF-core domain fragment.\nThe tissue culture assay uses 3T6 mouse cells engineered to express both full-length human tau protein (htau40) under the control of an inducible promoter (pOPRSVI), and to express low levels of truncated tau (295-390, dGA) under the control of a constitutive promoter (pcDNA3.1). Expression of large quantities of htau40 is induced by the addition of isopropyl β-D-1-thiogalactopyranoside (IPTG; 10-50 μM), which in turn leads to the production of additional truncated tau by a process in which aggregation and processing of the full-length tau occurs in the presence of dGA tau which acts as template. The aggregation of tau in this assay is depicted in FIG. 1.\nMurine 3T6 fibroblast cells were grown to ˜80% confluency in a 10-cm dish, before splitting into 2×24 well plates, and allowed to grow for a further 24 hrs when IPTG was added. After overnight incubation, the medium was removed and the cells were washed with PBS.\nA similar experiment was performed with cells seeded on to cover slips in a 24-well plate. After 24 hrs, the cells were incubated with ligand for 20 hrs in the presence or absence of IPTG (100 μM) i.e. induced or uninduced."}},
  "data": [
    {"smiles": "Cc1ccc2nc(-c3ccc(/C=C/c4ccc(N(C)C)cc4)cc3)sc2c1", "note": "[SK2033-30, 2-{4-[2-(4-Dimethylaminophenyl)-vinyl]-phenyl}-6-methylbenzothiazole]", "values": [
      {"measurement": "staining pattern in paraffin-embedded line 66 mouse brain section", "setting": "[1]; ligand added in 50% ethanol containing 10% DMSO", "result": "showed a staining pattern similar to that observed with primulin or antibody"},
      {"measurement": "uptake/staining in paraffin-embedded line 66 mouse brain section", "setting": "[1]; ligand added in 50% ethanol, compared with primulin or antibody immunostaining", "result": "little evidence for its uptake into cells"},
      {"measurement": "uptake and labelling of aggregated tau in induced cells", "setting": "[2]; IPTG-induced cells", "result": "demonstrated"},
      {"measurement": "binding to aggregated tau within cells, fluorescence microscopy", "setting": "[2]; induced cells", "result": "selective binding"}
    ]}
  ]
}
